Results published in patent publication US20200278355A1, “CONJUGATED PROTEINS AND USES THEREOF” (THE SCRIPPS RESEARCH INSTITUTE, priority 2017, published 2020).

Assays:
FLAG-NR0B1 (WT) = biological target: T1, FLAG-NR0B1 (WT) (Homo sapiens, UniProt P51843); experiment: Gel-based BPK-29yne labeling of NR0B1 and competition in HEK293T cells; assay type: cell-based; conditions: 3 h pre-treatment, then BPK-29yne 30 min
T1 construct: expressed in transfected cells; host or cells: HEK-293T, transient, pRK5-based vector
T1 sequence (P51843 whole entry): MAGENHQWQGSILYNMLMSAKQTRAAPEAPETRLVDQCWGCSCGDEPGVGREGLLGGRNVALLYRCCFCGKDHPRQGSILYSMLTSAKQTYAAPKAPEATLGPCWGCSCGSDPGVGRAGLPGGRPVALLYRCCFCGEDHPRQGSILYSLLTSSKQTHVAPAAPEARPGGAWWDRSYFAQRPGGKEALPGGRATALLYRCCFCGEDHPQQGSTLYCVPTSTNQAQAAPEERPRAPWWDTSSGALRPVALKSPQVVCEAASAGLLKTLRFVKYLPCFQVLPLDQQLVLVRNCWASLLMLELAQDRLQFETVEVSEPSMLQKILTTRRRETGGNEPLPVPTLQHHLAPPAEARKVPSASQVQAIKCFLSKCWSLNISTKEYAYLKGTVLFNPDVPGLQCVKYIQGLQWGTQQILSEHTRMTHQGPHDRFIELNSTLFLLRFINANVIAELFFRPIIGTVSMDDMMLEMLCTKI
Protocol: 4×10^6 HEK-293T cells were seeded in poly-L-lysine coated 10 cm plates and transfected the next day with 5 μg of FLAG-NR0B1, FLAG-NR0B1-C274V, or FLAG-METAP2 cDNA in a pRK5-based expression vector. 48 h after transfection, cells were treated with indicated concentrations of BPK-29 or control compound BPK-27 for 3 h at 37° C. in DMEM containing 10% FBS and supplements as described in Cell Culture. BPK-29yne (5 μM) was then added and incubated for an additional 30 min at 37° C. FLAG immunoprecipitates were prepared as described above and following washes, the FLAG resin was resuspended in PBS (100 μL). To each sample, 12 μL of a freshly prepared “click” reagent mixture was added to conjugate the fluorophore to probe-labeled proteins. […] Samples were boiled for 5 min and proteins were resolved by SDS-PAGE (10% acrylamide), and visualized by in-gel fluorescence on a Bio-Rad ChemiDoc MP flatbed fluorescence scanner. Samples were also analyzed by immunoblotting. Recombinantly expressed FLAG-tagged protein levels were determined with the FLAG antibody (Sigma). Gel fluorescence and imaging was processed using Image Lab (v 5.2.1) software.

TXN = biological target: T2, TXN (Homo sapiens, UniProt P10599); experiment: isoTOP-ABPP of compound-treated H460 cells: TXN; assay type: cell-based; conditions: TXN C35; 40 μM
T2 construct: H460 cells or H460 cells expressing luciferase in a 10 cm plate were incubated with indicated compounds; endogenous in cells; host or cells: H460
T2 sequence (P10599 whole entry): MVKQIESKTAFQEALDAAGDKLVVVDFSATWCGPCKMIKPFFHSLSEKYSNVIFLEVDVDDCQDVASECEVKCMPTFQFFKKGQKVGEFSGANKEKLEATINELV
Protocol: (§1) For analysis of NR0B1 ligands or control compound reactivity, H460 cells or H460 cells expressing luciferase in a 10 cm plate were incubated with indicated compounds in serum/dye-free RPMI for 3 hours at 37° C. Cells were washed once ice-cold PBS and lysed in 1% Triton X-100 dissolved in PBS with protease inhibitors (Sigma) by sonication. Samples were clarified by centrifugation for 10 min at 16,000×g. Lysate was adjusted to 1.5 mg ml^−1 in 500 μL.
(§2) Samples were labeled for 1 h at ambient temperature with 100 μM iodoacetamide alkyne (1, IA-alkyne, 5 μL of 10 mM stock in DMSO). Samples were conjugated by copper-catalyzed azide-alkyne cycloaddition (CuAAC) to isotopically labeled, TEV-cleavable tags (TEV-tags). Heavy CuAAC reaction mixtures was added to the DMSO-treated or shGFP control samples and light CuAAC reaction mixture was added to compound-treated or shNRF2 samples. The CuAAC reaction mixture consisted of TEV tags (light or heavy, 10 μL of 5 mM stocks in DMSO, final concentration=100 μM), 1 mM tris(2-carboxyethyl)phosphine hydrochloride (TCEP; fresh 50× stock in water, final concentration=1 mM), ligand (17× stock in DMSO:t-butanol 1:4, final concentration=100 μM) and 1 mM CuSO4 (50× stock in water, final concentration=1 mM). The samples were allowed to react for 1 h at which point the samples were centrifuged (16,000×g, 5 min, 4° C.). […]

TXNDC12 = biological target: T3, TXNDC12 (Homo sapiens, UniProt O95881); experiment: isoTOP-ABPP of compound-treated H460 cells: TXNDC12; assay type: cell-based; conditions: TXNDC12 C66; 40 μM
T3 construct: endogenous in cells; host or cells: H460
T3 sequence (O95881 27-172): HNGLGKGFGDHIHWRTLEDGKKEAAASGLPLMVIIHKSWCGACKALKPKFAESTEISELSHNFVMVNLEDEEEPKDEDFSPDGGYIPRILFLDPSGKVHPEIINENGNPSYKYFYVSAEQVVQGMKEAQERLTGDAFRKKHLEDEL
Protocol: as §1, §2

KEAP1-WT NSCLC cells = experiment: Anchorage-independent growth, KEAP1-WT NSCLC cells; assay type: cell-based, human; conditions: 5 μM
Source text: Based on its in situ activity (FIG. 6D and FIG. 12A, 12G) and selectivity (FIGS. 6A, 6B), BPK-29 was chosen for additional biological studies. […] Exogenous expression of […] the growth inhibition caused by BPK-29.

O=C(c1ccc(N2CCOCC2)cc1)N1CCCC(N(Cc2ccccc2)C(=O)CCl)CC1 (stereo not shown) [BPK-29, N-benzyl-2-chloro-N-(1-(4-morpholinobenzoyl)azepan-4-yl)acetamide]
blockade of BPK-29yne labeling of NR0B1 by pre-treatment (FLAG-NR0B1 (WT)): blocked by pre-treatment with BPK-29 in a concentration dependent manner | BPK-29-competed isoTOP-ABPP analysis (TXN): Yes (Competed defined as showing R value ≥ 3.0 at 40 μM of test compound) | BPK-29-competed isoTOP-ABPP analysis (TXNDC12): Yes (Competed defined as showing R value ≥ 3.0 at 40 μM of test compound) | anchorage-independent growth (KEAP1-WT NSCLC cells): minimally affected
